Assay results as given in ChEMBL document CHEMBL1201862, “PubChem BioAssay data set” (2004).
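Each compound was tested at five concentrations against cells in 96-well plates for 48 hours. At the GI50, growth is halved.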 Active and inactive are the calls of the source. Rule as the data show it: active = GI50 up to about 1.1 µM and inactive = higher.

Key:
Assay in all cases: DTP human tumour cell line panel, 48 h
[1] = test system: 786-0
[2] = test system: A549
[3] = test system: ACHN
[4] = test system: BT-549
[5] = test system: CAKI-1
[6] = test system: CCRF-CEM
[7] = test system: COLO 205
[8] = test system: DU-145
[9] = test system: EKVX
[10] = test system: HCC 2998
[11] = test system: HCT-116
[12] = test system: HCT-15
[13] = test system: HL-60
[14] = test system: HOP-62
[15] = test system: HT-29
[16] = test system: IGROV-1
[17] = test system: K562
[18] = test system: KM12
[19] = test system: LOX IMVI
[20] = test system: M14
[21] = test system: MCF7
[22] = test system: MDA-MB-231
[23] = test system: MDA-MB-435
[24] = test system: MDA-N
[25] = test system: MOLT-4
[26] = test system: Malme-3M
[27] = test system: NCI-H226
[28] = test system: NCI-H23
[29] = test system: NCI-H460
[30] = test system: NCI-H522
[31] = test system: NCI/ADR-RES
[32] = test system: OVCAR-3
[33] = test system: OVCAR-4
[34] = test system: OVCAR-5
[35] = test system: OVCAR-8
[36] = test system: PC-3
[37] = test system: RPMI-8226
[38] = test system: SF-268
[39] = test system: SF-295
[40] = test system: SF-539
[41] = test system: SK-MEL-28
[42] = test system: SK-MEL-2
[43] = test system: SK-MEL-5
[44] = test system: SK-OV-3
[45] = test system: SN12C
[46] = test system: SNB-19
[47] = test system: SNB-75
[48] = test system: SW-620
[49] = test system: TK-10
[50] = test system: U-251
[51] = test system: UACC-257
[52] = test system: UACC-62

SMILES: Cc1cc(S(=O)(=O)Nc2nc3cscc3c(=O)n2N)c(S)cc1Cl
- GI50 [1]: 54.6 µM (inactive)
- GI50 [2]: 28.2 µM (inactive)
- GI50 [3]: 56.2 µM (inactive)
- GI50 [4]: 55.1 µM (inactive)
- GI50 [5]: > 100 µM (inactive)
- GI50 [6]: 62.8 µM (inactive)
- GI50 [7]: > 100 µM (inactive)
- GI50 [8]: 40.3 µM (inactive)
- GI50 [9]: 70.1 µM (inactive)
- GI50 [10]: 47.5 µM (inactive)
- GI50 [11]: 36.7 µM (inactive)
- GI50 [12]: 35.2 µM
- GI50 [13]: > 100 µM (inactive)
- GI50 [14]: 49.3 µM (inactive)
- GI50 [15]: 39.6 µM (inactive)
- GI50 [16]: 50.7 µM (inactive)
- GI50 [17]: 60.5 µM (inactive)
- GI50 [18]: 39.5 µM (inactive)
- GI50 [19]: 36.5 µM (inactive)
- GI50 [20]: 31.9 µM (inactive)
- GI50 [21]: 61.5 µM (inactive)
- GI50 [22]: 73.8 µM (inactive)
- GI50 [23]: 56 µM (inactive)
- GI50 [24]: 51.4 µM (inactive)
- GI50 [25]: 57.3 µM (inactive)
- GI50 [26]: 39.4 µM (inactive)
- GI50 [27]: 8.15 µM (inactive)
- GI50 [28]: 55.2 µM (inactive)
- GI50 [29]: 28 µM (inactive)
- GI50 [30]: 32.8 µM (inactive)
- GI50 [31]: 26.3 µM (inactive)
- GI50 [32]: 45 µM (inactive)
- GI50 [33]: 39.3 µM (inactive)
- GI50 [34]: 26.5 µM (inactive)
- GI50 [35]: 46.2 µM (inactive)
- GI50 [36]: 48.8 µM (inactive)
- GI50 [37]: 96.6 µM (inactive)
- GI50 [38]: 17.7 µM (inactive)
- GI50 [39]: 37.9 µM (inactive)
- GI50 [40]: 34.7 µM (inactive)
- GI50 [41]: 73.3 µM (inactive)
- GI50 [42]: 33.4 µM (inactive)
- GI50 [43]: 41 µM (inactive)
- GI50 [44]: > 100 µM (inactive)
- GI50 [45]: 56.4 µM (inactive)
- GI50 [46]: 35.9 µM (inactive)
- GI50 [47]: 15 µM (inactive)
- GI50 [48]: 54.7 µM (inactive)
- GI50 [49]: > 100 µM (inactive)
- GI50 [50]: 37.3 µM (inactive)
- GI50 [51]: > 100 µM (inactive)
- GI50 [52]: 31.9 µM (inactive)
